Measured values taken from ChEMBL document CHEMBL4765244, “Synthesis, bioconversion, pharmacokinetic and pharmacodynamic evaluation of N-isopropyl-oxy-carbonyloxymethyl prodrugs of CZh-226, a potent and selective PAK4 inhibitor” (Eur J Med Chem, 2020).

Assays:
[1] = AUC in Wistar rat assessed as (R)-(6-chloro-4-(5-cyclopropyl-1H-pyrazol-3-ylamino)quinazolin-2-yl)(3-methylpiperazin-1-yl)methanone hydrochloride at 2.5 mg/kg, iv measured upto 24 hrs by LC/MS/MS analysis; type: ADME, organism-based; design: route intravenous, dose 2.5 mg/kg, time <=24; conditions: in vivo
[2] = Volume of distribution in Wistar rat assessed as (R)-(6-chloro-4-(5-cyclopropyl-1H-pyrazol-3-ylamino)quinazolin-2-yl)(3-methylpiperazin-1-yl)methanone hydrochloride at 2.5 mg/kg, iv measured upto 24 hrs by LC/MS/MS analysis; type: ADME, organism-based; conditions: in vivo
HCT-116 [3] = test: Antitumor activity against human HCT-116 cells xenografted in BABL/c nude mouse assessed as reduction in tumor weight at 25 mg/kg, po qd measured after 21 days; type: functional; conditions: HCT-116, po, 504 h, time 21 day
[4] = Stability of the compound in rat liver S9 fraction assessed as compound remaining measured after 60 mins at 37 degC by LC-MS/MS analysis; type: ADME, subcellular; conditions: read-out: Stabilty
[5] = Chemical stability of the compound in pH 6.8 simulated intestinal fluid assessed as compound remaining measured after 2 hrs by HPLC analysis; type: physicochemical
B16-F10 [6] = test: Antitumor activity against mouse B16F10 cells xenografted in BABL/c nude mouse assessed as reduction in tumor volume at 50 mg/kg, po qd measured after 21 days; type: functional; conditions: 504 h, time 21 day
[7] = Prodrug conversion in human plasma assessed as release of active metabolite (R)-(6-chloro-4-(5-cyclopropyl-1H-pyrazol-3-ylamino)quinazolin-2-yl)(3-methylpiperazin-1-yl)methanone hydrochloride measured within 120 mins at 37 degC by HPLC analysis; type: ADME, cell-free; conditions: 2 h
[8] = Half life in Wistar rat assessed as (R)-(6-chloro-4-(5-cyclopropyl-1H-pyrazol-3-ylamino)quinazolin-2-yl)(3-methylpiperazin-1-yl)methanone hydrochloride at 13.5 mg/kg, po measured upto 24 hrs by LC/MS/MS analysis; type: ADME, organism-based; conditions: in vivo
[9] = Oral bioavailability in Wistar rat assessed as (R)-(6-chloro-4-(5-cyclopropyl-1H-pyrazol-3-ylamino)quinazolin-2-yl)(3-methylpiperazin-1-yl)methanone hydrochloride at 13.5 mg/kg measured upto 24 hrs by LC/MS/MS analysis; type: ADME, organism-based; conditions: in vivo
[10] = AUC in Wistar rat assessed as (R)-(6-chloro-4-(5-cyclopropyl-1H-pyrazol-3-ylamino)quinazolin-2-yl)(3-methylpiperazin-1-yl)methanone hydrochloride at 13.5 mg/kg, po measured upto 24 hrs by LC/MS/MS analysis; type: ADME, organism-based; design: route oral, dose 13.5 mg/kg, time <=24; conditions: in vivo
HCT-116 [11] = test: Antitumor activity against human HCT-116 cells xenografted in BABL/c nude mouse assessed as reduction in tumor weight at 50 mg/kg, po qd measured after 21 days; type: functional; conditions: HCT-116, po, 504 h, time 21 day
B16-F10 [12] = test: Antitumor activity against mouse B16F10 cells xenografted in BABL/c nude mouse assessed as reduction in tumor volume at 25 mg/kg, po qd measured after 21 days; type: functional; conditions: 504 h, time 21 day
[13] = Tmax in Wistar rat assessed as (R)-(6-chloro-4-(5-cyclopropyl-1H-pyrazol-3-ylamino)quinazolin-2-yl)(3-methylpiperazin-1-yl)methanone hydrochloride at 13.5 mg/kg, po measured upto 24 hrs by LC/MS/MS analysis; type: ADME, organism-based; conditions: in vivo
[14] = Chemical stability of the compound in pH 1.2 simulated gastric fluid buffer assessed as compound remaining measured after 2 hrs by HPLC analysis; type: physicochemical
[15] = Cmax in Wistar rat assessed as (R)-(6-chloro-4-(5-cyclopropyl-1H-pyrazol-3-ylamino)quinazolin-2-yl)(3-methylpiperazin-1-yl)methanone hydrochloride at 13.5 mg/kg, po measured upto 24 hrs by LC/MS/MS analysis; type: ADME, organism-based; design: route oral, dose 13.5 mg/kg, time <=24; conditions: in vivo
[16] = Toxicity in […] nude mouse harboring mouse B16F10 cells assessed as body weight loss at 25 to 50 mg/kg, po qd measured after 21 days relative to control; type: organism-based; conditions: in vivo, 504 h, dose 25-50 mg/kg, time 21 day
[17] = AUC (0 to infinity) in Wistar rat assessed as (R)-(6-chloro-4-(5-cyclopropyl-1H-pyrazol-3-ylamino)quinazolin-2-yl)(3-methylpiperazin-1-yl)methanone hydrochloride at 13.5 mg/kg, po measured upto 24 hrs by LC/MS/MS analysis; type: ADME, organism-based; design: route oral, dose 13.5 mg/kg, time <=24; conditions: in vivo
[18] = Half life in Wistar rat assessed as (R)-(6-chloro-4-(5-cyclopropyl-1H-pyrazol-3-ylamino)quinazolin-2-yl)(3-methylpiperazin-1-yl)methanone hydrochloride at 2.5 mg/kg, iv measured upto 24 hrs by LC/MS/MS analysis; type: ADME, organism-based; conditions: in vivo
[19] = AUC (0 to infinity) in Wistar rat assessed as (R)-(6-chloro-4-(5-cyclopropyl-1H-pyrazol-3-ylamino)quinazolin-2-yl)(3-methylpiperazin-1-yl)methanone hydrochloride at 2.5 mg/kg, iv measured upto 24 hrs by LC/MS/MS analysis; type: ADME, organism-based; design: route intravenous, dose 2.5 mg/kg, time <=24; conditions: in vivo
[20] = Stability of the compound in human plasma assessed as compound remaining measured within 120 mins at 37 degC by HPLC analysis; type: ADME, cell-free; conditions: read-out: Stabilty
[21] = Toxicity in […] nude mouse harboring human HCT-116 cells assessed as body weight loss at 25 to 50 mg/kg, po qd measured after 21 days relative to control; type: organism-based; conditions: in vivo, 504 h, dose 25-50 mg/kg, time 21 day
[22] = Chemical stability of the compound in pH 7.4 PBS buffer assessed as compound remaining measured after 2 hrs by HPLC analysis; type: physicochemical; conditions: read-out: Stabilty
[23] = Initial plasma concentration in Wistar rat assessed as (R)-(6-chloro-4-(5-cyclopropyl-1H-pyrazol-3-ylamino)quinazolin-2-yl)(3-methylpiperazin-1-yl)methanone hydrochloride at 2.5 mg/kg, iv measured upto 24 hrs by LC/MS/MS analysis; type: ADME, organism-based; conditions: in vivo

CC(C)C(=O)OCOC(=O)N1CCN(C(=O)c2nc(Nc3cc(C4CC4)[nH]n3)c3cc(Cl)ccc3n2)C[C@H]1C showed an AUC [1] of 1124.8 ng·h/mL, a Vd [2] of 21.6 L/kg and an inhibition in vivo at 25 mg/kg (HCT-116 [3]) of 54%. For the same molecule, the remaining at 1 h [4] was 14%, the Stability [5] was 46% and the inhibition in vivo at 50 mg/kg (B16-F10 [6]) was 63%. For the same molecule, the Drug metabolism [7] was 89.9%, the t1/2 [8] was 20.1 h and the F [9] was 7.55%. The AUC [10] was 129.7 ng·h/mL, the inhibition in vivo at 50 mg/kg (HCT-116 [11]) was 65% and the inhibition in vivo at 25 mg/kg (B16-F10 [12]) was 51%. It also gave a Tmax [13] of 4.98 min, a Stability [14] of 90% and a Cmax [15] of 31.5 ng/mL. The Activity [16] was “Non-Toxic”, the AUC [17] was 470.8 ng·h/mL and the t1/2 [18] was 7.1 h. The AUC [19] was 1173.5 ng·h/mL, the remaining at 2 h [20] was 6.1% and the Activity [21] was “Non-Toxic”. The remaining at 2 h [22] was 93.5% and the C0 [23] was 4130 ng/mL.
